{"source": "paper PMC8073005", "about": "“Antifungal Activity and DNA Topoisomerase Inhibition of Hydrolysable Tannins from Punica granatum L” (International Journal of Molecular Sciences, 2021)", "key": {"Candida albicans 1": {"tested_on": "Candida albicans 1", "assay": "MIC, broth microdilution (human pathogens)", "format": "cell-based", "details": "Candida albicans, 1, 48 h, read-out: Minimum inhibitory concentration (MIC)"}, "Candida albicans 40": {"tested_on": "Candida albicans 40", "assay": "MIC, broth microdilution (human pathogens)", "format": "cell-based", "details": "Candida albicans, 40, 48 h, read-out: Minimum inhibitory concentration (MIC)"}, "Candida strains": {"tested_on": "Candida strains", "assay": "Agar Disk Diffusion Assay, Candida strains", "format": "cell-based", "details": "100 µg"}, "Candida albicans 41": {"tested_on": "Candida albicans 41", "assay": "MIC, broth microdilution (human pathogens)", "format": "cell-based", "details": "Candida albicans, 41, 48 h, read-out: Minimum inhibitory concentration (MIC)"}, "[1]": {"tested_on": "Cryptococcus var. grubii H99 serotype A", "assay": "MIC, broth microdilution (human pathogens)", "format": "cell-based", "details": "Cryptococcus, 48 h, read-out: Minimum inhibitory concentration (MIC)"}, "Botrytis cinerea B2": {"tested_on": "Botrytis cinerea B2", "assay": "MIC, micro-spectrophotometric growth assay (phytopathogens)", "format": "cell-based", "details": "Botrytis cinerea B2; PDB, 24 °C, dark; imazalil at label dose; read-out: Minimum inhibitory concentration (MIC)"}, "Candida albicans 2": {"tested_on": "Candida albicans 2", "assay": "MIC, broth microdilution (human pathogens)", "format": "cell-based", "details": "Candida albicans, 2, 48 h, read-out: Minimum inhibitory concentration (MIC)"}, "[2]": {"target": "T1, topoisomerase I from Candida albicans (Candida albicans, UniProt Q00313)", "T1 sequence (Q00313 1-778)": "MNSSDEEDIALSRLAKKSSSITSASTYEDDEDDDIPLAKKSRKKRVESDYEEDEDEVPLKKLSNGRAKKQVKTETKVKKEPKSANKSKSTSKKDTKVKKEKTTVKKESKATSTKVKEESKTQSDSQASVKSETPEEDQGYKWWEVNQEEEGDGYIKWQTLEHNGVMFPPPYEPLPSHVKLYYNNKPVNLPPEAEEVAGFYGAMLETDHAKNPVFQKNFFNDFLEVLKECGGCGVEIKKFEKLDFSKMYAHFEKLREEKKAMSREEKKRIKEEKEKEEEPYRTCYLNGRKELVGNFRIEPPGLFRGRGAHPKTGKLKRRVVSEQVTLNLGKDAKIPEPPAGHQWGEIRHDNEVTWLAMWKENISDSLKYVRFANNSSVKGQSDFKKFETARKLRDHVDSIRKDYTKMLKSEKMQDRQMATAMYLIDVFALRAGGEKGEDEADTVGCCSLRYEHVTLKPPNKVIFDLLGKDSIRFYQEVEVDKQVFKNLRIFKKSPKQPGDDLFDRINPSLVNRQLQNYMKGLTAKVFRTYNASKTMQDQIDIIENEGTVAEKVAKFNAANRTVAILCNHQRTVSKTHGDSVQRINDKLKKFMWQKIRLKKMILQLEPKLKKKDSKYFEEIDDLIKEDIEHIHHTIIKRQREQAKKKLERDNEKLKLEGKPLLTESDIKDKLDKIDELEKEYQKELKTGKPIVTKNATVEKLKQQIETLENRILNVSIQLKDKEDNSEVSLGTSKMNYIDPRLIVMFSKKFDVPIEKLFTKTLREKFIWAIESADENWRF", "assay": "Topoisomerase I supercoiled DNA relaxation inhibition", "format": "biochemical"}, "Aspergillus candidus 3": {"tested_on": "Aspergillus candidus 3", "assay": "MIC, broth microdilution (human pathogens)", "format": "cell-based", "details": "Aspergillus candidus, 3, 48 h, read-out: Minimum inhibitory concentration (MIC)"}, "Coniella granati M0_C2": {"tested_on": "Coniella granati M0_C2", "assay": "MIC, micro-spectrophotometric growth assay (phytopathogens)", "format": "cell-based"}, "Candida zeylanoides 33": {"tested_on": "Candida zeylanoides 33", "assay": "MIC, broth microdilution (human pathogens)", "format": "cell-based", "details": "Dujonia zeylanoides, 33, 48 h, read-out: Minimum inhibitory concentration (MIC)"}, "Candida albicans SC 5314 [3]": {"tested_on": "Candida albicans SC 5314", "assay": "MIC, broth microdilution (human pathogens)", "format": "cell-based", "details": "Candida albicans, SC5314, 48 h, read-out: Minimum inhibitory concentration (MIC)"}, "Cryptococcus 67": {"tested_on": "Cryptococcus 67", "assay": "MIC, broth microdilution (human pathogens)", "format": "cell-based", "details": "Cryptococcus, 67, 48 h, read-out: Minimum inhibitory concentration (MIC)"}, "[4]": {"tested_on": "C. albicans 1 (clinically isolated strain)", "assay": "Time-kill curves", "format": "cell-based, Candida albicans", "details": "compound at its MIC value, 0–96 h"}, "[5]": {"tested_on": "Candida albicans ATCC 10321", "assay": "MIC, broth microdilution (human pathogens)", "format": "cell-based", "details": "Candida albicans, ATCC10321, 48 h, read-out: Minimum inhibitory concentration (MIC)"}, "[6]": {"tested_on": "Aspergillus brasiliensis ATCC 16404", "assay": "MIC, broth microdilution (human pathogens)", "format": "cell-based", "details": "Aspergillus brasiliensis, ATCC16404, 48 h, read-out: Minimum inhibitory concentration (MIC)"}, "[7]": {"tested_on": "Saccharomyces cerevisiae 42", "assay": "MIC, broth microdilution (human pathogens)", "format": "cell-based", "details": "Saccharomyces cerevisiae, 42, 48 h, read-out: Minimum inhibitory concentration (MIC)"}, "[8]": {"tested_on": "Cryptococcus neoformans B 3501", "assay": "MIC, broth microdilution (human pathogens)", "format": "cell-based", "details": "Cryptococcus neoformans, B3501, 48 h, read-out: Minimum inhibitory concentration (MIC)"}, "Candida albicans SC 5314 [9]": {"tested_on": "Candida albicans SC 5314", "assay": "Time-kill curves", "format": "cell-based", "details": "C. albicans SC 5314; compound at its MIC value; 0–96 h"}, "Candida parapsilosis 7": {"tested_on": "Candida parapsilosis 7", "assay": "MIC, broth microdilution (human pathogens)", "format": "cell-based", "details": "Lodderomyces parapsilosis, 7, 48 h, read-out: Minimum inhibitory concentration (MIC)"}, "[10]": {"tested_on": "Colletotrichum acutatum s.s. M146-2", "assay": "MIC, micro-spectrophotometric growth assay (phytopathogens)", "format": "cell-based, Colletotrichum acutatum sensu stricto"}, "[11]": {"tested_on": "Cryptococcus neoformans ATCC 11240", "assay": "MIC, broth microdilution (human pathogens)", "format": "cell-based", "details": "Cryptococcus neoformans, ATCC11240, 48 h, read-out: Minimum inhibitory concentration (MIC)"}, "Candida albicans H": {"tested_on": "Candida albicans H", "assay": "MIC, broth microdilution (human pathogens)", "format": "cell-based", "details": "Candida albicans, 48 h, read-out: Minimum inhibitory concentration (MIC)"}, "Candida albicans 44": {"tested_on": "Candida albicans 44", "assay": "MIC, broth microdilution (human pathogens)", "format": "cell-based", "details": "Candida albicans, 44, 48 h, read-out: Minimum inhibitory concentration (MIC)"}, "[12]": {"tested_on": "Alternaria alternata AL19", "assay": "MIC, micro-spectrophotometric growth assay (phytopathogens)", "format": "cell-based", "details": "Alternaria alternata AL19; PDB, 24 °C, dark; imazalil at label dose; read-out: Minimum inhibitory concentration (MIC)"}, "[13]": {"tested_on": "other genera tested (other fungi strains)", "assay": "Agar Disk Diffusion Assay, other genera", "format": "cell-based", "details": "100 µg", "experimental": "The antifungal activity of pomegranate compounds was evaluated against 19 clinically isolated fungal strains, including nine belonging to Candida albicans species, two belonging to Aspergillus genus, one belonging to Cryptococcus genus, and one Saccharomyces cerevisiae. The C. albicans strains were isolated on CHROMID agar, Aspergillus and Cryptococcus genus were isolated on SDA-CAF and one Saccharomyces cerevisiae on SDA. All the isolates were confirmed by matrix-assisted laser desorption ionization (MALDI) time-of-flight mass spectrometry (TOF/MS). Strains from the American Type Culture Collection (ATCC) were included. All strains were maintained in SDB with 20% (w/v) glycerol at −80 °C until use and sub-cultured in SDA before each test.\nThe preliminary determination of the antifungal activity of the target compounds (punicalagin, punicalin, ellagic acid, and gallic acid) from pomegranate was carried out by means of the agar disk diffusion assay, according to the standard procedure of the Clinical and Laboratory Standards Institute, with slight modifications. Plates containing SDA were uniformly spread with 100 μL of 10^3 conidia/mL of each strain suspension. […] Disks containing fluconazole (25 μg), amphotericin B (25 μg) and DMSO (20 μL) were used as the positive and the negative control, respectively. The antifungal activity of pomegranate compounds was evaluated by measuring the diameter of the clear inhibition zone formed right around the disks after 48 h incubation at 30 ± 1 °C. The experiment was carried out in triplicate."}, "Aspergillus candidus 25": {"tested_on": "Aspergillus candidus 25", "assay": "MIC, broth microdilution (human pathogens)", "format": "cell-based", "details": "Aspergillus candidus, 25, 48 h, read-out: Minimum inhibitory concentration (MIC)"}, "Candida parapsilosis": {"tested_on": "Candida parapsilosis", "assay": "MIC, broth microdilution (human pathogens)", "format": "cell-based", "details": "Lodderomyces parapsilosis, 48 h, read-out: Minimum inhibitory concentration (MIC)"}, "DNA topoisomerase I": {"target": "DNA topoisomerase I", "design": "method as in PMID 1324981", "details": "reported; cited from earlier work"}}, "data": [{"smiles": "O=C1O[C@H]2[C@@H]3OC(=O)c4cc(O)c(O)c(O)c4-c4c(O)c(O)c5oc(=O)c6c(c(O)c(O)c7oc(=O)c4c5c76)-c4c(cc(O)c(O)c4O)C(=O)OC[C@H]3OC(O)[C@@H]2OC(=O)c2cc(O)c(O)c(O)c2-c2c1cc(O)c(O)c2O", "note": "(mixture of isomers) [Punicalagin, punicalagin]", "values": [{"measurement": "MIC", "setting": "Candida albicans 1", "value": 1.4, "unit": "µM"}, {"measurement": "MIC", "setting": "Candida albicans 40", "value": 5.5, "unit": "µM"}, {"measurement": "share of Candida strains with inhibition zone from 21 to 30 mm", "setting": "Candida strains", "value": 82, "unit": "%"}, {"measurement": "MIC", "setting": "Candida albicans 41", "value": 92.2, "unit": "µM"}, {"measurement": "MIC", "setting": "[1]", "value": 92.2, "unit": "µM"}, {"measurement": "MIC", "setting": "Botrytis cinerea B2", "value": 92.2, "unit": "µM"}, {"measurement": "MIC", "setting": "Candida albicans 2", "value": 1.4, "unit": "µM"}, {"measurement": "IC50", "setting": "[2]", "value": "9 ± 1.2", "unit": "µM"}, {"measurement": "MIC", "setting": "Aspergillus candidus 3", "value": 92.2, "unit": "µM"}, {"measurement": "growth reduction", "setting": "Coniella granati M0_C2; C. granati, 48 h of incubation", "value": 83, "unit": "%"}, {"measurement": "MIC", "setting": "Coniella granati M0_C2; Coniella granati M0_C2, PDB, 24 °C, dark, imazalil at label dose, read-out: Minimum inhibitory concentration (MIC)", "value": 184.4, "unit": "µM"}, {"measurement": "MIC", "setting": "Candida zeylanoides 33", "value": 92.2, "unit": "µM"}, {"measurement": "MIC", "setting": "Candida albicans SC 5314 [3]", "value": 0.7, "unit": "µM"}, {"measurement": "MIC", "setting": "Cryptococcus 67", "value": 92.2, "unit": "µM"}, {"measurement": "time-kill curve (susceptibility time-course)", "setting": "[4]", "value": "preserved the antifungal activity until the end of the test (96 h)"}, {"measurement": "MIC", "setting": "[5]", "value": 0.7, "unit": "µM"}, {"measurement": "MIC", "setting": "[6]", "value": 2.8, "unit": "µM"}, {"measurement": "MIC", "setting": "[7]", "value": 1.4, "unit": "µM"}, {"measurement": "MIC", "setting": "[8]", "value": 46.1, "unit": "µM"}, {"measurement": "time-kill curve (susceptibility time-course)", "setting": "Candida albicans SC 5314 [9]", "value": "major reduction in the number of C. albicans SC 5314 cells"}, {"measurement": "MIC", "setting": "Candida parapsilosis 7", "value": 5.5, "unit": "µM"}, {"measurement": "growth reduction", "setting": "[10]; C. acutatum s.s., at 48 h", "value": 66, "unit": "%"}, {"measurement": "MIC", "setting": "[10]; Colletotrichum acutatum s.s. M146-2, PDB, 24 °C, dark, imazalil at label dose, read-out: Minimum inhibitory concentration (MIC)", "value": 184.4, "unit": "µM"}, {"measurement": "MIC", "setting": "[11]", "value": 23, "unit": "µM"}, {"measurement": "MIC", "setting": "Candida albicans H", "value": 92.2, "unit": "µM"}, {"measurement": "MIC", "setting": "Candida albicans 44", "value": 92.2, "unit": "µM"}, {"measurement": "MIC", "setting": "[12]", "value": 92.2, "unit": "µM"}, {"measurement": "share of other genera tested with inhibition zone from 21 to 30 mm", "setting": "[13]", "value": 63, "unit": "%"}, {"measurement": "MIC", "setting": "Aspergillus candidus 25", "value": 92.2, "unit": "µM"}, {"measurement": "MIC", "setting": "Candida parapsilosis", "value": 0.7, "unit": "µM"}]}, {"smiles": "O=C(O)C[C@@H]1C(=O)O[C@H]2[C@@H]3OC(=O)c4cc(O)c(O)c(O)c4-c4c(cc(O)c(O)c4O)C(=O)OC[C@H]2O[C@@H](OC(=O)c2cc(O)c(O)c(O)c2)[C@@H]3OC(=O)c2cc(O)c(O)c3c2[C@H]1[C@H](O)C(=O)O3", "note": "[CHEMBL525240, Chebulagic acid]", "values": [{"measurement": "IC50", "setting": "DNA topoisomerase I", "value": 0.05, "unit": "µM"}]}]}
